One molecule from article PMC5218480 (PLoS ONE, 2017) can be followed below.

This assay relates to MV-4-11 cells. The assay is described as follows: Gene expression microarray analysis (Affymetrix PrimeView) and GSEA. The class given is cell-based, human. More on the design: RFU PODN (11730768_x_at) / Fold change /veh PODN (11730768_x_at) / RFU LINC00158 (11744669_a_at) / Fold change /veh LINC00158 (11744669_a_at) / RFU DUSP10 (11751237_a_at) / Fold change /veh DUSP10 (11751237_a_at) / RFU ID3 (11757404_x_at) / Fold change /veh ID3 (11757404_x_at) / RFU PLEKHG5 (11737974_s_at) / Fold change /veh PLEKHG5 (11737974_s_at) / RFU LRRC4B (11730491_at) / Fold change /veh LRRC4B (11730491_at) / RFU GIMAP4 (11747438_a_at) / Fold change /veh GIMAP4 (11747438_a_at) / RFU KRT8 (11758183_x_at) / Fold change /veh KRT8 (11758183_x_at) / RFU CNN1 (11734310_a_at) / Fold change /veh CNN1 (11734310_a_at) / RFU VPS37D (11726825_at) / Fold change /veh VPS37D (11726825_at) / RFU C10orf10 (11716522_x_at) / Fold change /veh C10orf10 (11716522_x_at) / RFU KIR2DL2 /// KIR2DL4 /// KIR2DL5A /// KIR2DL5B /// KIR2DS1 /// KIR2DS2 /// KIR2DS3 /// KIR2DS4 /// KIR3DL3 /// KIR3DL3 /// KIR3DS1 (11738374_at) / Fold change /veh KIR2DL2 /// KIR2DL4 /// KIR2DL5A /// KIR2DL5B /// KIR2DS1 /// KIR2DS2 /// KIR2DS3 /// KIR2DS4 /// KIR3DL3 /// KIR3DL3 /// KIR3DS1 (11738374_at) / RFU C1QL1 (11718748_at) / Fold change /veh C1QL1 (11718748_at) / RFU TMPRSS4 (11747572_a_at) / Fold change /veh TMPRSS4 (11747572_a_at) / RFU HAMP (11756126_x_at) / Fold change /veh HAMP (11756126_x_at) / RFU RNFT2 (11725882_a_at) / Fold change /veh RNFT2 (11725882_a_at) / RFU NR4A2 (11747474_a_at) / Fold change /veh NR4A2 (11747474_a_at) / RFU ABCC12 (11746883_a_at) / Fold change /veh ABCC12 (11746883_a_at) / RFU TMEM136 (11760407_x_at) / Fold change /veh TMEM136 (11760407_x_at) / RFU CLDN22 /// WWC2 (11732394_at) / Fold change /veh CLDN22 /// WWC2 (11732394_at) / RFU HLA-DPB1 (11760878_x_at) / Fold change /veh HLA-DPB1 (11760878_x_at) / RFU SPINT1 (11716480_a_at) / Fold change /veh SPINT1 (11716480_a_at) / RFU GAP43 (11754022_s_at) / Fold change /veh GAP43 (11754022_s_at) / RFU A4GNT (11735810_at) / Fold change /veh A4GNT (11735810_at) / RFU PRB3 (11715151_x_at) / Fold change /veh PRB3 (11715151_x_at) / RFU TUBB4B (11761932_at) / Fold change /veh TUBB4B (11761932_at) / RFU CAPN14 (11732068_a_at) / Fold change /veh CAPN14 (11732068_a_at) / RFU TMCC2 (11721928_a_at) / Fold change /veh TMCC2 (11721928_a_at) / RFU IRGQ (11745062_a_at) / Fold change /veh IRGQ (11745062_a_at) / RFU FAM174B (11720279_a_at) / Fold change /veh FAM174B (11720279_a_at) / RFU TMPRSS4 (11748680_a_at) / Fold change /veh TMPRSS4 (11748680_a_at) / RFU FAM212B (11763350_a_at) / Fold change /veh FAM212B (11763350_a_at) / RFU PLEKHG5 (11743358_a_at) / Fold change /veh PLEKHG5 (11743358_a_at) / RFU ZSCAN30 (11745921_a_at) / Fold change /veh ZSCAN30 (11745921_a_at) / RFU CMKLR1 (11741424_a_at) / Fold change /veh CMKLR1 (11741424_a_at) / RFU LOC101060620 /// MAPK8IP1 (11723275_at) / Fold change /veh LOC101060620 /// MAPK8IP1 (11723275_at) / RFU SPTSSB (11747773_x_at) / Fold change /veh SPTSSB (11747773_x_at) / RFU PRSS12 (11739890_at) / Fold change /veh PRSS12 (11739890_at) / RFU BIN1 (11741810_x_at) / Fold change /veh BIN1 (11741810_x_at) / RFU WNT11 (11732464_a_at) / Fold change /veh WNT11 (11732464_a_at) / RFU C10orf10 (11716521_a_at) / Fold change /veh C10orf10 (11716521_a_at) / RFU C5orf56 (11738089_at) / Fold change /veh C5orf56 (11738089_at) / RFU CYB561 (11721691_x_at) / Fold change /veh CYB561 (11721691_x_at) / RFU ANKRD19P (11752326_a_at) / Fold change /veh ANKRD19P (11752326_a_at) / RFU OR2T12 /// OR2T33 /// OR2T8 (11738714_s_at) / Fold change /veh OR2T12 /// OR2T33 /// OR2T8 (11738714_s_at) / RFU VCAN (11748164_a_at) / Fold change /veh VCAN (11748164_a_at) / RFU JSRP1 (11732532_at) / Fold change /veh JSRP1 (11732532_at) / RFU KRTAP10-11 (11738290_x_at) / Fold change /veh KRTAP10-11 (11738290_x_at) / RFU MYO3A (11730013_a_at) / Fold change /veh MYO3A (11730013_a_at) / RFU EBF3 (11725865_a_at) / Fold change /veh EBF3 (11725865_a_at) / RFU CAMK2N1 (11719241_x_at) / Fold change /veh CAMK2N1 (11719241_x_at) / RFU C5orf56 (11738088_a_at) / Fold change /veh C5orf56 (11738088_a_at) / RFU OLFML3 (11715873_a_at) / Fold change /veh OLFML3 (11715873_a_at) / RFU LOC100653217 /// NTM (11731650_a_at) / Fold change /veh LOC100653217 /// NTM (11731650_a_at) / RFU MAPK11 (11762145_a_at) / Fold change /veh MAPK11 (11762145_a_at) / RFU FIZ1 (11724087_x_at) / Fold change /veh FIZ1 (11724087_x_at) / RFU OASL (11726364_x_at) / Fold change /veh OASL (11726364_x_at) / RFU SOX15 (11748057_x_at) / Fold change /veh SOX15 (11748057_x_at) / RFU CD79A (11719716_a_at) / Fold change /veh CD79A (11719716_a_at) / RFU HIST1H1D (11736915_at) / Fold change /veh HIST1H1D (11736915_at) / RFU CASKIN2 (11723855_a_at) / Fold change /veh CASKIN2 (11723855_a_at) / RFU LOC730098 (11760151_x_at) / Fold change /veh LOC730098 (11760151_x_at) / RFU OR4N2 (11742367_at) / Fold change /veh OR4N2 (11742367_at) / RFU PRRT2 (11749266_a_at) / Fold change /veh PRRT2 (11749266_a_at) / RFU SNX32 (11753110_a_at) / Fold change /veh SNX32 (11753110_a_at) / RFU CDHR5 (11726645_a_at) / Fold change /veh CDHR5 (11726645_a_at) / RFU RCAN1 (11760418_a_at) / Fold change /veh RCAN1 (11760418_a_at) / RFU FAM167A (11723789_a_at) / Fold change /veh FAM167A (11723789_a_at) / RFU FAM26E (11764081_at) / Fold change /veh FAM26E (11764081_at) / RFU ISYNA1 (11749810_s_at) / Fold change /veh ISYNA1 (11749810_s_at) / RFU ACY1 (11761880_at) / Fold change /veh ACY1 (11761880_at) / RFU 11764098_at / Fold change /veh 11764098_at / RFU SAMD14 (11745864_x_at) / Fold change /veh SAMD14 (11745864_x_at) / RFU NPB (11741838_a_at) / Fold change /veh NPB (11741838_a_at) / RFU TMPRSS6 (11731388_a_at) / Fold change /veh TMPRSS6 (11731388_a_at) / RFU KRTAP10-2 (11738614_at) / Fold change /veh KRTAP10-2 (11738614_at) / RFU ARHGAP8 /// PRR5-ARHGAP8 (11727945_x_at) / Fold change /veh ARHGAP8 /// PRR5-ARHGAP8 (11727945_x_at) / RFU KRTAP5-7 /// NADSYN1 (11734609_at) / Fold change /veh KRTAP5-7 /// NADSYN1 (11734609_at) / RFU RASL12 (11751679_a_at) / Fold change /veh RASL12 (11751679_a_at) / RFU CDKN2B (11736163_a_at) / Fold change /veh CDKN2B (11736163_a_at) / RFU PRF1 (11729649_at) / Fold change /veh PRF1 (11729649_at) / RFU, ZNF638 /// ZNF638-IT1 / Fold change vs veh, ZNF638 /// ZNF638-IT1 / RFU, PANK3 / Fold change vs veh, PANK3 / RFU, SH3YL1 / Fold change vs veh, SH3YL1 / RFU, ZEB2 / Fold change vs veh, ZEB2 / RFU, NRIP1 / Fold change vs veh, NRIP1 / RFU, PTTG1IP / Fold change vs veh, PTTG1IP / RFU, CAPN2 / Fold change vs veh, CAPN2 / RFU, MED14 / Fold change vs veh, MED14 / RFU, SNORA58 / Fold change vs veh, SNORA58 / RFU, C1orf63 / Fold change vs veh, C1orf63 / RFU, LRRFIP1 / Fold change vs veh, LRRFIP1 / RFU, NDUFAF7 / Fold change vs veh, NDUFAF7 / RFU, SLC12A2 / Fold change vs veh, SLC12A2 / RFU, IBTK / Fold change vs veh, IBTK / RFU, ESF1 / Fold change vs veh, ESF1 / Fold change vs veh, TMEM50B / RFU, TAOK1 / Fold change vs veh, TAOK1 / RFU, ACBD3 / Fold change vs veh, ACBD3 / RFU, TMA16 / Fold change vs veh, TMA16 / RFU, RWDD3 / Fold change vs veh, RWDD3 / RFU, BCAT1 / Fold change vs veh, BCAT1 / RFU, EDEM3 / Fold change vs veh, EDEM3 / RFU, TMEM33 / Fold change vs veh, TMEM33 / RFU, WDR75 / Fold change vs veh, WDR75 / RFU, AHCTF1 / Fold change vs veh, AHCTF1 / RFU, TFRC / Fold change vs veh, TFRC / RFU, ZDHHC17 / Fold change vs veh, ZDHHC17 / RFU, NOM1 / Fold change vs veh, NOM1 / RFU, ARL8B / Fold change vs veh, ARL8B / RFU, ZBTB11 / Fold change vs veh, ZBTB11 / RFU, TAMM41 / Fold change vs veh, TAMM41 / RFU, KIAA1704 /// LOC100996395 / Fold change vs veh, KIAA1704 /// LOC100996395 / RFU, ING1 / Fold change vs veh, ING1 / RFU, TRMT61B / Fold change vs veh, TRMT61B / RFU, FUBP3 / Fold change vs veh, FUBP3 / RFU, TP53 / Fold change vs veh, TP53 / RFU, TNKS2 / Fold change vs veh, TNKS2 / RFU, ZFP14 / Fold change vs veh, ZFP14 / RFU, ACTR2 / Fold change vs veh, ACTR2 / RFU, PPP3R1 / Fold change vs veh, PPP3R1 / RFU, PIK3R1 / Fold change vs veh, PIK3R1 / RFU, HNRNPA1 / Fold change vs veh, HNRNPA1 / RFU, RNF170 / Fold change vs veh, RNF170 / RFU, ZNF28 / Fold change vs veh, ZNF28 / RFU, RNGTT / Fold change vs veh, RNGTT / RFU, OGT / Fold change vs veh, OGT / RFU, BRD1 / Fold change vs veh, BRD1 / RFU, MARS / Fold change vs veh, MARS / RFU, ZNF655 / Fold change vs veh, ZNF655 / RFU, FAHD1 / Fold change vs veh, FAHD1 / RFU, BDP1 / Fold change vs veh, BDP1 / RFU, LRRCC1 / Fold change vs veh, LRRCC1 / RFU, ARID1A / Fold change vs veh, ARID1A / RFU, ZNF146 / Fold change vs veh, ZNF146 / RFU, ZNF330 / Fold change vs veh, ZNF330 / RFU, GPN3 / Fold change vs veh, GPN3 / RFU, C9orf123 / Fold change vs veh, C9orf123 / RFU, N4BP2L2 / Fold change vs veh, N4BP2L2 / RFU, ARFIP1 / Fold change vs veh, ARFIP1 / RFU, FAM179B / Fold change vs veh, FAM179B / RFU, BCL10 / Fold change vs veh, BCL10 / RFU, UHRF1BP1L / Fold change vs veh, UHRF1BP1L / RFU, BET1 / Fold change vs veh, BET1 / RFU, CNOT2 / Fold change vs veh, CNOT2 / RFU, ZNF268 / Fold change vs veh, ZNF268 / Fold change vs veh, ZNF507 / RFU, DGCR2 / Fold change vs veh, DGCR2 / RFU, WDSUB1 / Fold change vs veh, WDSUB1 / Fold change vs veh, HSP90B1 /// MIR3652 / RFU, ADSS / Fold change vs veh, ADSS / RFU, GK / Fold change vs veh, GK / RFU, ZNF148 / Fold change vs veh, ZNF148 / RFU, TAF9 / Fold change vs veh, TAF9 / RFU, SLC1A5 / Fold change vs veh, SLC1A5 / RFU, SLMO2 / Fold change vs veh, SLMO2 / RFU, ABCC4 / Fold change vs veh, ABCC4 / RFU, LOC101060439 /// RAP1B / Fold change vs veh, LOC101060439 /// RAP1B / RFU, RFX7 / Fold change vs veh, RFX7 / RFU, GTPBP10 / Fold change vs veh, GTPBP10 / RFU, CNEP1R1 / Fold change vs veh, CNEP1R1 / RFU, BIVM-ERCC5 /// ERCC5 / Fold change vs veh, BIVM-ERCC5 /// ERCC5 / RFU, ILF3 / Fold change vs veh, ILF3 / RFU 11762660_at / Fold change /veh 11762660_at / RFU VCAN (11757783_s_at) / Fold change /veh VCAN (11757783_s_at) / RFU DDX43 (11728927_at) / Fold change /veh DDX43 (11728927_at) / RFU KRT8 (11758188_x_at) / Fold change /veh KRT8 (11758188_x_at) / RFU NKD1 (11759106_at) / Fold change /veh NKD1 (11759106_at) / RFU SRD5A1 (11742802_a_at) / Fold change /veh SRD5A1 (11742802_a_at) / RFU TPSAB1 /// TPSB2 (11721975_s_at) / Fold change /veh TPSAB1 /// TPSB2 (11721975_s_at) / RFU GSTM3 (11746129_a_at) / Fold change /veh GSTM3 (11746129_a_at) / RFU IL23R (11737362_x_at) / Fold change /veh IL23R (11737362_x_at) / RFU TMEM51 (11727254_a_at) / Fold change /veh TMEM51 (11727254_a_at) / RFU PIWIL2 (11732686_x_at) / Fold change /veh PIWIL2 (11732686_x_at) / RFU ORM1 (11744905_x_at) / Fold change /veh ORM1 (11744905_x_at) / RFU CCDC152 (11743942_at) / Fold change /veh CCDC152 (11743942_at) / RFU ECM1 (11717891_a_at) / Fold change /veh ECM1 (11717891_a_at) / RFU IL23R (11748794_a_at) / Fold change /veh IL23R (11748794_a_at) / RFU TNFAIP8L3 (11732012_x_at) / Fold change /veh TNFAIP8L3 (11732012_x_at) / RFU MBOAT4 (11741988_at) / Fold change /veh MBOAT4 (11741988_at) / RFU 11764193_at / Fold change /veh 11764193_at / RFU TMEM53 (11763286_at) / Fold change /veh TMEM53 (11763286_at) / RFU MAGEB2 (11727129_at) / Fold change /veh MAGEB2 (11727129_at) / RFU TMEM200A (11744735_a_at) / Fold change /veh TMEM200A (11744735_a_at) / RFU CCDC152 (11751479_a_at) / Fold change /veh CCDC152 (11751479_a_at) / RFU FAM211A (11726209_a_at) / Fold change /veh FAM211A (11726209_a_at) / RFU RGS16 (11746705_a_at) / Fold change /veh RGS16 (11746705_a_at) / RFU VCAN (11755009_s_at) / Fold change /veh VCAN (11755009_s_at) / RFU RHOB (11743442_s_at) / Fold change /veh RHOB (11743442_s_at) / RFU RGS16 (11720943_a_at) / Fold change /veh RGS16 (11720943_a_at) / RFU RGS16 (11720944_at) / Fold change /veh RGS16 (11720944_at) / RFU, VPS4B / Fold change vs veh, VPS4B / RFU, CREB1 / Fold change vs veh, CREB1 / RFU, DNAJC13 / Fold change vs veh, DNAJC13 / RFU, GNAQ / Fold change vs veh, GNAQ / RFU, CDK5R1 / Fold change vs veh, CDK5R1 / RFU, ZRANB3 / Fold change vs veh, ZRANB3 / RFU, CUL4A / Fold change vs veh, CUL4A / RFU, CCNY / Fold change vs veh, CCNY / RFU, UFL1 / Fold change vs veh, UFL1 / RFU, COG3 / Fold change vs veh, COG3 / RFU, DIAPH2 / Fold change vs veh, DIAPH2 / RFU, SKA2 / Fold change vs veh, SKA2 / RFU, AFF3 / Fold change vs veh, AFF3 / RFU, LMF1 / Fold change vs veh, LMF1 / RFU, IPO11 / Fold change vs veh, IPO11 / RFU, DFFB / Fold change vs veh, DFFB / RFU, FOXP1 / Fold change vs veh, FOXP1 / RFU, CARD8 / Fold change vs veh, CARD8 / RFU, STRN3 / Fold change vs veh, STRN3 / RFU, ADK / Fold change vs veh, ADK / RFU, RASSF2 / Fold change vs veh, RASSF2 / RFU, WIPF1 / Fold change vs veh, WIPF1 / RFU, LARP1B / Fold change vs veh, LARP1B / RFU, RASA1 / Fold change vs veh, RASA1 / RFU, RB1 / Fold change vs veh, RB1 / RFU, PPFIA1 / Fold change vs veh, PPFIA1 / RFU, MAT2A / Fold change vs veh, MAT2A / RFU, CCT5 / Fold change vs veh, CCT5 / RFU, WDR92 / Fold change vs veh, WDR92 / RFU, CUX1 / Fold change vs veh, CUX1 / RFU, TTC7A / Fold change vs veh, TTC7A / RFU, TMEM135 / Fold change vs veh, TMEM135 / RFU, DEPTOR / Fold change vs veh, DEPTOR / RFU, CPM / Fold change vs veh, CPM / RFU, DNAJB6 / Fold change vs veh, DNAJB6 / RFU, CACNA2D3 / Fold change vs veh, CACNA2D3 / RFU, DTX4 / Fold change vs veh, DTX4 / RFU, TFCP2 / Fold change vs veh, TFCP2 / RFU, GMCL1 /// GMCL1P1 / Fold change vs veh, GMCL1 /// GMCL1P1 / RFU, AEBP2 / Fold change vs veh, AEBP2 / RFU, SNHG1 /// SNORD22 /// SNORD25 /// SNORD26 /// SNORD27 /// SNORD28 /// SNORD29 /// SNORD31 / Fold change vs veh, SNHG1 /// SNORD22 /// SNORD25 /// SNORD26 /// SNORD27 /// SNORD28 /// SNORD29 /// SNORD31 / Fold change (Aza/veh), C12orf56 (ProbeSet 11735607_a_at) / Fold change (ACY-1035/veh), C12orf56 (ProbeSet 11735607_a_at) / Fold change (Aza/veh), FGFR1OP (ProbeSet 11751329_s_at) / Fold change (ACY-1035/veh), FGFR1OP (ProbeSet 11751329_s_at) / Fold change (Aza/veh), VPS36 (ProbeSet 11739960_a_at) / Fold change (ACY-1035/veh), VPS36 (ProbeSet 11739960_a_at) / RFU SYPL1 (11715823_x_at) / Fold change /veh SYPL1 (11715823_x_at) / RFU IGFBP7 (11715501_s_at) / Fold change /veh IGFBP7 (11715501_s_at) / RFU REEP3 (11722064_at) / Fold change /veh REEP3 (11722064_at) / RFU IGLL1 (11728026_x_at) / Fold change /veh IGLL1 (11728026_x_at): dose or concentration left out as unconfirmed. As to conditions: MV-4-11 cells, 48 hours.

Regarding `Nc1ncn([C@@H]2O[C@H](CO)[C@@H](O)[C@H]2O)c(=O)n1` [azacitidine], the “Fold change /veh LOC100653217 /// NTM (11731650_a_at)” value was found to be 1.16.
